For orientation: IC50 means the midpoint of a concentration-inhibition curve. A higher IC50 goes with weaker potency. For orientation: half-life means the time in which the quantity being followed falls by half.

Data set [1] concerns the target Replicase polyprotein 1ab (Severe acute respiratory syndrome coronavirus 2) (UniProt P0DTD1). Briefly: Binding affinity to SARS-Cov-2 Main protease.
The target is the same in data set [2]. Briefly: Binding affinity to SARS-Cov-2 PLpro.
For data set [3], the target named is Spike glycoprotein (Severe acute respiratory syndrome coronavirus 2) (UniProt P0DTC2). Briefly: Binding affinity to SARS-Cov-2 Spike protein.
The target of data set [4] is Dual specificity mitogen-activated protein kinase kinase; MEK1/2 (Homo sapiens, UniProt P36507+Q02750). Briefly: Inhibition of MEK1/2 (unknown origin). The data set is classed as protein assay.
The nature of data set [5]: Half life in rat. The data set is classed as ADME. The settings on record: in vivo.
The nature of data set [6]: Half life in dog. The data set is classed as ADME, Canis lupus familiaris. The settings on record: in vivo.
The nature of data set [7]: Inhibition of CGRP (unknown origin). On the set-up: species or system Homo sapiens.

In the case of `CNC(=O)c1ccc(-c2cnc3ncc(Cc4ccc5ncccc5c4)n3n2)cc1F`, the K in data set [1] was -9.3 kcal/mol; in data set [2] it was -7.7 kcal/mol; in data set [3], -7.7 kcal/mol.

For `Cn1cnc2c(F)c(Nc3ccc(Br)cc3F)c(C(=O)NOCCO)cc21` [BINIMETINIB], the IC50 in data set [4] stood at 12 nM.

For the molecule `CN1CCN2c3c(cccc31)[C@@H]1CN(CCCC(=O)c3ccc(F)cc3)CC[C@@H]12` [LUMATEPERONE], the half-life in data set [5] and in data set [6] was at most 30 h each time. In data set [7], this molecule showed an IC50 of 0.14 nM.
